Results: patent US20200407398A1, “Short Proline-Rich Lipopeptide Potentiates Minocycline and Rifampicin Against Multidrug-and Extensively Drug-Resistant Pseudomonas Aeruginosa” (priority 2018, published 2020)
Read-outs that look alike come from different tables or passages of the source. Peptide text beside a SMILES is read from it. * marks the point of attachment. Acetyl(1-adamantyl) = O=C(CC12CC3CC(CC(C3)C1)C2)*; Palmitoyl = CCCCCCCCCCCCCCCC(=O)*; Lauroyl = CCCCCCCCCCCC(=O)*

Columns and labels:
[1] = test system: A. baumannii CAN-ICU 63169; assay type: cell-based
Experimental: (§1) The synthesized SPRLPs were evaluated for their antibacterial potency against a panel of Gram-positive and Gram-negative bacteria (Tables 2 & 3). Some of the included pathogens were collected from patients visiting or admitted to participating Canadian hospitals through the CAN-ICU (27) and CANWARD (28) national surveillance studies. Antibacterial activity was assessed using minimum inhibitory concentration (MIC) against various clinical pathogens.
(§2) Isolates used in this study were either obtained from the American Type Culture Collection (ATCC), the Canadian National Intensive Care Unit (CAN-ICU) surveillance study (27) or the Canadian Ward Surveillance (CANWARD) study (28). Clinical isolates belonging to the CAN-ICU and CANWARD studies were recovered from patients suffering a presumed infectious disease entering or admitted in a participating medical center across Canada during the time of study. MDR P. aeruginosa strains in this study refer to those that are resistant to aminoglycosides, fluoroquinolones, cephalosporins, and carbapenems while XDR strains are those that are resistant to aminoglycosides, fluoroquinolones, cephalosporins, carbapenems, aztreonam and penicillin+β-lactamase inhibitor combination (39, 40).
(§3) Microbroth dilution susceptibility test following the Clinical and Laboratory Standards Institute (CLSI) guidelines (32) was performed to assess the in vitro antibacterial activity of SPRLPs. Overnight grown bacterial cultures were diluted in saline to achieve a 0.5 McFarland turbidity, followed by 1:50 dilution in Mueller-Hinton broth (MHB) for inoculation to a final concentration of 5×10^5 colony forming units/mL. The assay was done on a 96-well plate to which the agents of interest were 2-fold serially diluted in MHB and incubated with equal volumes of inoculum at 37° C. for 18 hours. MIC was determined as the lowest concentration to inhibit visible bacterial growth in form of turbidity, which was confirmed using EMax Plus microplate reader (Molecular Devices, USA) at a wavelength of 590 nm. The well containing MHB broth with or without bacterial cells was used as positive or negative control, respectively.

[2] = test system: E. coli ATCC 25922; assay type: cell-based
Experimental: as §1, §2, §3

[3] = test system: E. coli CAN-ICU 61714 (gentamicin-resistant); assay type: cell-based
Experimental: as §1, §2, §3

[4] = test system: E. coli CAN-ICU 63074 (amikacin-intermediate resistant); assay type: cell-based
Experimental: as §1, §2, §3

[5] = test system: E. coli CANWARD-2011 97615 (gentamicin-, tobramycin-, ciprofloxacin-resistant) aac(3′)iia; assay type: cell-based
Experimental: as §1, §2, §3

[6] = test system: E. faecalis ATCC 29212; assay type: cell-based
Experimental: as §1, §2, §3

[7] = test system: E. faecium ATCC 27270; assay type: cell-based
Experimental: as §1, §2, §3

[8] = test system: K. pneumoniae ATCC 13883; assay type: cell-based
Experimental: as §1, §2, §3

[9] = test system: P. aeruginosa ATCC 27853; assay type: cell-based
Experimental: as §1, §2, §3

[10] = test system: P. aeruginosa CAN-ICU 62308 (gentamicin-resistant); assay type: cell-based
Experimental: as §1, §2, §3

[11] = test system: P. aeruginosa CANWARD-2011 96846 (gentamicin-, tobramycin-resistant); assay type: cell-based
Experimental: as §1, §2, §3

[12] = test system: P. aeruginosa wild-type PAO1; assay type: cell-based
Experimental: as §1, §2, §3

[13] = test system: S. aureus ATCC 29213; assay type: cell-based
Experimental: as §1, §2, §3

[14] = test system: S. maltophilia CAN-ICU 62584; assay type: cell-based
Experimental: as §1, §2, §3

[15] = test system: methicillin-resistant S. aureus ATCC 33592; assay type: cell-based
Experimental: as §1, §2, §3

[16] = test system: methicillin-resistant S. epidermidis CAN-ICU 61589 (ceftazidime-resistant); assay type: cell-based; settings: methicillin-resistant CAN-ICU 61589 (ceftazidime-resistant)
Experimental: as §1, §2, §3

[17] = test system: methicillin-susceptible Staphylococcus epidermidis CANWARD-2008 81388; assay type: cell-based; settings: methicillin-susceptible CANWARD-2008 81388
Experimental: as §1, §2, §3

[18] = test system: pig erythrocytes; assay type: cell-based
Experimental: Since PRAMPs are able to kill bacteria through membrane lysis, it is imperative to evaluate whether these synthesized SPRLPs also lyse eukaryotic membranes. The ability to lyse porcine red blood cells was assessed and the minimum concentration to result in 5% erythrocyte hemolysis (MHC) was reported (Tables 2 & 3). […] This greatly limits their therapeutic potential. […] However, all other SPRLPs were non-hemolytic (MHC>512 μg/mL).
The ability of SPRLPs to lyse eukaryotic red blood cells were quantified by the amount of hemoglobin released upon incubation with pig erythrocytes, following published protocols (37, 39). Fresh pig blood drawn from pig antecubital vein was centrifuged at 1000×g for 5 minutes at 4° C., washed with PBS three times and re-suspended in the same buffer, consecutively. Then, agents of interest were 2-fold serially diluted in PBS on 96-well plate and mixed with equal volumes of erythrocyte solution. Post 1-hour incubation at 37° C., intact cells were pelleted by centrifugation at 1000×g for 5 minutes at 4° C. The supernatant was then transferred to a new 96-well plate. The hemoglobin released was measured via EMax Plus microplate reader (Molecular Devices, USA) at 570 nm wavelength. Erythrocytes in PBS with or without 0.1% Triton X-100 was used as negative or positive control, respectively.

[19] = test system: wild-type and MDR/XDR P. aeruginosa clinical isolates; settings: checkerboard assay; P. aeruginosa
Experimental: We evaluated the activity of SPRLPs in combination with fifteen clinically-used antibiotics against P. aeruginosa. Antibiotics tested included fluoroquinolones (moxifloxacin, ciprofloxacin and levofloxacin), aminoglycosides (gentamicin, tobramycin and amikacin), cephalosporins (ceftazidime and cefotaxime), carbapenems (meropenem and doripenem), aztreonam, rifampicin, minocycline, colistin and fosfomycin. The SPRLPs were screened initially at a fixed concentration of 8 μg/mL (5 μM) in combination with antibiotics against wild-type P. aeruginosa PAO1. We assessed potentiation by at least a four-fold absolute MIC reduction of the antibiotic, after which synergism was further validated by a conventional checkerboard assay. A fractional inhibitory concentration (FIC) index of ≤0.5, 0.5<x≤4 or >4 was interpreted as synergistic, indifferent or antagonistic interaction, respectively (31). FIC index was obtained by adding the FIC values of the antibiotic and the SPRLP adjuvant. FIC of antibiotics was calculated by dividing the MIC of the antibiotic in the presence of the adjuvant by the MIC of the antibiotic alone. Similarly, the FIC of adjuvant was calculated via dividing the MIC of the adjuvant in the presence of the antibiotic by the MIC of the adjuvant alone.
as §2, §3
The assay was performed on a 96-well plate, to which the agents of interest was 2-fold serially diluted in working MHB. Prior to serial dilution, SPRLP was added to the working MHB media so that a fixed final concentration of 8 μg/mL (5 μM) SPRLP per well was achieved. To ensure that the assay was working, the MIC determination test of the studied antibiotic (without SPRLP) was included on the same plate. Similar MIC results between the assay comparator and an independent MIC determination test (on a different plate) ensured validity of the synergy test. Overnight grown bacterial cultures were diluted in saline to 0.5 McFarland turbidity, followed by 1:50 dilution in MHB (without SPRLP) and inoculation into each well to a final concentration of approximately 5×10^5 colony forming units/mL. Wells containing only MHB (without SPRLP) with or without bacterial cells were used as positive or negative control, respectively.

| SMILES | MIC [1] | MIC [2] | MIC [3] | MIC [4] | MIC [5] | MIC [6] | MIC [7] | MIC [8] | MIC [9] | MIC [10] | MIC [11] | MIC [12] | MIC [13] | MIC [14] | MIC [15] | MIC [16] | MIC [17] | MHC (minimum concentration that resulted in 5% red blood cell hemolysis) ([18]; red cells of porcine) | MHC (minimum concentration that resulted in 5% red blood cell hemolysis) [18] | further results |
| --- | --- | --- | --- | --- | --- | --- | --- | --- | --- | --- | --- | --- | --- | --- | --- | --- | --- | --- | --- | --- |
| N=C(N)NCCC[C@H](NC(=O)[C@@H]1CCCN1C(=O)[C@H](CCCNC(=N)N)NC(=O)[C@@H]1CCCN1C(=O)[C@H](CCCNC(=N)N)NC(=O)[C@@H]1CCCN1C(=O)CC12CC3CC(CC(C3)C1)C2)C(=O)N1CCC[C@H]1C(N)=O [Ad-PRP, Adamantyl-CH2CO-PRPRPRP-NH2] ({Acetyl(1-adamantyl)}-PRPRPRP-NH2) | >128 µg/mL | >128 µg/mL | >128 µg/mL | >128 µg/mL | >128 µg/mL | >128 µg/mL | >128 µg/mL | >128 µg/mL | >128 µg/mL | >128 µg/mL | >128 µg/mL | >512 µg/mL | >128 µg/mL | >128 µg/mL | >128 µg/mL | >128 µg/mL | >128 µg/mL | >512 µg/mL | – | interaction with minocycline (in words) [19]: indifferent interaction; interaction with rifampicin (in words) [19]: indifferent interaction |
| CCCCCCCCCCCC(=O)N1CCC[C@H]1C(=O)N[C@@H](CCCNC(=N)N)C(=O)N1CCC[C@H]1C(=O)NCC(=O)N1CCC[C@H]1C(=O)N[C@@H](CCCNC(=N)N)C(=O)N1CCC[C@H]1C(N)=O [Compound C12-PGP, CH3(CH2)10CO-PRPGPRP-NH2] (Lauroyl-PRPGPRP-NH2) | >128 µg/mL | >128 µg/mL | >128 µg/mL | >128 µg/mL | >128 µg/mL | >128 µg/mL | >128 µg/mL | >128 µg/mL | >128 µg/mL | >128 µg/mL | >128 µg/mL | >512 µg/mL | >128 µg/mL | >128 µg/mL | >128 µg/mL | >128 µg/mL | 128 µg/mL | >512 µg/mL | – | – |
| CCCCCCCCCCCC(=O)N1CCC[C@H]1C(=O)N[C@@H](CCCNC(=N)N)C(=O)N1CCC[C@H]1C(=O)N[C@@H](CC(C)C)C(=O)N1CCC[C@H]1C(=O)N[C@@H](CCCNC(=N)N)C(=O)N1CCC[C@H]1C(N)=O [Compound C12-PLP, CH3(CH2)10CO-PRPLPRP-NH2] (Lauroyl-PRPLPRP-NH2) | >128 µg/mL | >128 µg/mL | >128 µg/mL | >128 µg/mL | >128 µg/mL | 128 µg/mL | 128 µg/mL | >128 µg/mL | >128 µg/mL | >128 µg/mL | >128 µg/mL | 512 µg/mL | 128 µg/mL | >128 µg/mL | 128 µg/mL | 64 µg/mL | 64 µg/mL | >512 µg/mL | – | – |
| CCCCCCCCCCCC(=O)N1CCC[C@H]1C(=O)N[C@@H](CCCNC(=N)N)C(=O)N1CCC[C@H]1C(=O)N[C@@H](Cc1c[nH]c2ccccc12)C(=O)N1CCC[C@H]1C(=O)N[C@@H](CCCNC(=N)N)C(=O)N1CCC[C@H]1C(N)=O [Compound C12-PWP, CH3(CH2)10CO-PRPWPRP-NH2] (Lauroyl-PRPWPRP-NH2) | 128 µg/mL | 128 µg/mL | 128 µg/mL | 128 µg/mL | 128 µg/mL | 32 µg/mL | 32 µg/mL | >128 µg/mL | >128 µg/mL | >128 µg/mL | >128 µg/mL | 64 µg/mL | 32 µg/mL | >128 µg/mL | 32 µg/mL | 16 µg/mL | 16 µg/mL | – | 64 µg/mL | – |
| CCCCCCCCCCCCCCCC(=O)N1CCC[C@H]1C(=O)N[C@@H](CCCNC(=N)N)C(=O)N1CCC[C@H]1C(=O)N[C@@H](CC(C)C)C(=O)N1CCC[C@H]1C(=O)N[C@@H](CCCNC(=N)N)C(=O)N1CCC[C@H]1C(N)=O [Compound C16-PLP, CH3(CH2)14CO-PRPLPRP-NH2] (Palmitoyl-PRPLPRP-NH2) | 128 µg/mL | 128 µg/mL | 64 µg/mL | 64 µg/mL | 128 µg/mL | 64 µg/mL | 64 µg/mL | 128 µg/mL | >128 µg/mL | >128 µg/mL | >128 µg/mL | 32 µg/mL | 64 µg/mL | >128 µg/mL | 64 µg/mL | 64 µg/mL | 32 µg/mL | – | 16 µg/mL | – |
